According to patent US10501752B2, “Herbicide tolerant cotton event pDAB4468.19.10.3” (Dow AgroSciences LLC, priority 2012, dated 2019):

Key:
[1] = tested on: cotton event pDAB4468.19.10.3 (aad-12); experiment: Tolerance to butanoic acids of triclopyr and fluroxypyr in greenhouse trials (% injury); format: in vivo, Gossypium hirsutum; details: 2-3 leaf stage
Experimental: (§1) Herbicide tolerance was assessed following a single post-emergence application of the two molecules. Seed from cotton event pDAB4468.19.10.3 were heat treated in a water bath at 82.5° C. for 1 minute and then planted in metro mix 360 media and grown in a greenhouse. The temperatures in the greenhouse averaged 27° C. and the photoperiod was set at 16 hours of light and eight hours of dark, with maximum light intensity. Plants were allowed to grow until the 2-3 leaf stage of development and a non-randomized study was conducted with four replications and three treatments for each herbicide. […] In addition, a crop oil concentrate was added to a final concentration of 1.25%. Plants were sprayed in a track sprayer calibrated to deliver 187 L/ha of the formulated technical material. A non-transformed Coker 310 variety of cotton was used as a negative control.

[2] = tested on: non-transformed Coker 310 variety of cotton (WT); experiment: Butanoic acids of triclopyr and fluroxypyr greenhouse trials, negative control plants (% injury); format: in vivo, Gossypium hirsutum; details: 2-3 leaf stage
Experimental: as §1

| Compound | % Injury ([1]; 140 g ai/ha, 1 DAA) | % Injury ([1]; 140 g ai/ha, 3 DAA) | % Injury ([1]; 140 g ai/ha, 6 DAA) | % Injury ([1]; 140 g ai/ha, 6 HAA) | % Injury ([1]; 140 g ai/ha, 14 DAA) | % Injury ([1]; 280 g ai/ha, 1 DAA) | % Injury ([1]; 280 g ai/ha, 3 DAA) | % Injury ([1]; 280 g ai/ha, 6 DAA) | % Injury ([1]; 280 g ai/ha, 6 HAA) | % Injury ([1]; 280 g ai/ha, 14 DAA) | % Injury ([1]; 560 g ai/ha, 1 DAA) | % Injury ([1]; 560 g ai/ha, 3 DAA) | % Injury ([1]; 560 g ai/ha, 6 DAA) | % Injury ([1]; 560 g ai/ha, 6 HAA) | % Injury ([1]; 560 g ai/ha, 14 DAA) | % Injury ([2]; 140 g ai/ha, 1 DAA) | % Injury ([2]; 140 g ai/ha, 3 DAA) | % Injury ([2]; 140 g ai/ha, 6 DAA) | % Injury ([2]; 140 g ai/ha, 6 HAA) | % Injury ([2]; 140 g ai/ha, 14 DAA) | other results |
| --- | --- | --- | --- | --- | --- | --- | --- | --- | --- | --- | --- | --- | --- | --- | --- | --- | --- | --- | --- | --- | --- |
| Nc1c(Cl)c(F)nc(OCCCC(=O)O)c1Cl [Fluroxypyr-b, fluroxypyr-B] | 3b % | 2d % | 2c % | 6.5b % | 0c % | 2b % | 2.3d % | 2.8c % | 7.8b % | 0c % | 3.5b % | 2d % | 2.8c % | 8b % | 2c % | 21.8a % | 32.5bc % | 37.5a % | 17.8b % | 56.3b % | % Injury ([2]; 280 g ai/ha, 1 DAA): 24.3a %; % Injury ([2]; 280 g ai/ha, 3 DAA): 33.8bc %; % Injury ([2]; 280 g ai/ha, 6 DAA): 41.3a %; % Injury ([2]; 280 g ai/ha, 6 HAA): 21.3ab %; % Injury ([2]; 280 g ai/ha, 14 DAA): 62.5ab %; % Injury ([2]; 560 g ai/ha, 1 DAA): 22.3a %; % Injury ([2]; 560 g ai/ha, 3 DAA): 31.3c %; % Injury ([2]; 560 g ai/ha, 6 DAA): 41.3a %; % Injury ([2]; 560 g ai/ha, 6 HAA): 20ab %; % Injury ([2]; 560 g ai/ha, 14 DAA): 61.3ab % |
| O=C(O)CCCOc1nc(Cl)c(Cl)cc1Cl [Triclopyr-b, triclopyr-B] | 0.5b % | 1a % | 1.5a % | 3.8c % | 0a % | 2b % | 2a % | 2.8a % | 5.3c % | 0a % | 2.8b % | 3.5a % | 4.3a % | 8.5b % | 0a % | 20.5a % | 26.7a % | 25b % | 12.8b % | 47.5b % | % Injury ([2]; 280 g ai/ha, 1 DAA): 21.5a %; % Injury ([2]; 280 g ai/ha, 3 DAA): 27.5a %; % Injury ([2]; 280 g ai/ha, 6 DAA): 33.8a %; % Injury ([2]; 280 g ai/ha, 6 HAA): 7.3b %; % Injury ([2]; 280 g ai/ha, 14 DAA): 57.5ab %; % Injury ([2]; 560 g ai/ha, 1 DAA): 18.8a %; % Injury ([2]; 560 g ai/ha, 3 DAA): 33.8a %; % Injury ([2]; 560 g ai/ha, 6 DAA): 35a %; % Injury ([2]; 560 g ai/ha, 6 HAA): 8.3b %; % Injury ([2]; 560 g ai/ha, 14 DAA): 51.3ab % |
